# Source: patent US4599352A, “Antineoplastic platinum (IV) complexes and compositions” (priority 1984, dated 1986)
# How the values were obtained:
# Assay type in all cases: in vivo, Female CD2Fl mice
# [1] = tested on: IP L1210; test: Activity against IP-implanted L1210 leukemia sensitive to cisplatin, 60 day test (Table 4)
# Description: (§1) Biological properties of the compounds of the present invention were determined following the protocol described in Cancer Chemotherapy Reports, Vol. 3, No. 3, 1972 which report is incorporated herein by reference.
# (§2) Other known mechanisms of resistance for other classes of agents, such as gene amplification or target enzyme change or amplication, also need to be explored. The experiments summarized in Table 3 were conducted at the same time against both sublines using the same drug preparations. […] These experiments were repeated in a second laboratory as documented in Table 4. However, in these experiments the animals were held for 60 rather than 30 days to evaluate whether or not long-term survivors are produced after drug treatment in a more challenging setting.
# This experiment (A8-00005 3LE31) was conducted at the Southern Research Institute, Birmingham, Ala. under the supervision of Dr. Daniel Griswold. The protocols were the same as those published previously (Geran et al., Cancer Chemotherapy Reports 3: No. 2, 1972 [Attachment 11]). 10^5 cells were implanted intraperitoneally in CD2Fl male mice on Day 0. Drug treatments were given intraperitoneally as single injections at the doses indicated on Days 1, 5 and 9 after tumor implantation. The diluent was saline except for NSC-271674 where 5% sodium bicarbonate was used. All drugs were prepared fresh on the day of injection, and all were administered in solution. Median survival times for both control and drug-treated mice were determined and expressed as a percentage (% T/C). Body weights were determined on Day 5 and expressed as a weight difference (body weight of the drug-treated animals minus that of the control animals in grams) (T-C). The diluent control animals lived a median of 8.4 days and gained 1.9 grams by Day 5 in this experiment. All animals, including Day 30 survivors, were used in the calculation of median survival times. The log10 change in tumor burden refers to the net log change in viable tumor cell population at the end of therapy (Rx) as compared to the start of therapy; e.g., a […] means that there was a […] and a 3 log change means there was a 1000-fold increase in tumor burden at the end of therapy. The tumor burden at the start of therapy was about 6.1×10^5 cells in this experiment.
# (§3) These experiments (23-00081 3LE31 and 23-00003 3DP3l) were conducted concurrently at the Mason Research Institute, Worcester, MA under the supervision of Dr. William Cobb. See Table 4 for experimental details. The diluent control animals bearing L1210 leukemia lived a median of 8.3 days and gained 1.6 grams by Day 5. […] Female CD2Fl mice were used for these experiments.
# [2] = tested on: IP L1210/Cisplatin; test: Activity against IP-implanted L1210/Cisplatin leukemia resistant to cisplatin, 60 day test (Table 4)
# Description: as §1
# Other known mechanisms of resistance for other classes of agents, such as gene amplification or target enzyme change or amplication, also need to be explored. The experiments summarized in Table 3 were conducted at the same time against both sublines using the same drug preparations. […] These experiments were repeated in a second laboratory as documented in Table 4. However, in these experiments the animals were held for 60 rather than 30 days to evaluate whether or not long-term survivors are produced after drug treatment in a more challenging setting. […]
# as §3
# [3] = tested on: IP L1210/Cisplatin; test: Activity against IP-implanted L1210/Cisplatin leukemia resistant to cisplatin, 30 day test (Table 3)
# Description: as §1, §2
# This experiment (A8-00005 3LE31) was conducted at the Southern Research Institute, Birmingham, Ala. under the supervision of Dr. Daniel Griswold. The protocols were the same as those published previously (Geran et al., Cancer Chemotherapy Reports 3: No. 2, 1972 [Attachment 11]). 10^5 cells were implanted intraperitoneally in CD2Fl male mice on Day 0. Drug treatments were given intraperitoneally as single injections at the doses indicated on Days 1, 5 and 9 after tumor implantation. The diluent was saline except for NSC-271674 where 5% sodium bicarbonate was used. All drugs were prepared fresh on the day of injection, and all were administered in solution. Median survival times for both control and drug-treated mice were determined and expressed as a percentage (% T/C). Body weights were determined on Day 5 and expressed as a weight difference (body weight of the drug-treated animals minus that of the control animals in grams) (T-C). The diluent control animals lived a median of 8.4 days and gained 1.9 grams by Day 5 in this experiment. All animals, including Day 30 survivors, were used in the calculation of median survival times. The log10 change in tumor burden refers to the net log change in viable tumor cell population at the end of therapy (Rx) as compared to the start of therapy; e.g., a […] means that there was a […] and a 3 log change means there was a 1000-fold increase in tumor burden at the end of therapy. The tumor burden at the start of therapy was about 6.1×10^5 cells in this experiment. […]
smiles,measurement,setting,value
"N[C@@H]1CCCC[C@H]1N.O=C([O-])c1ccc(C(=O)[O-])c(C(=O)[O-])c1.[H+].[Pt+2] [Carboxyphthalato Platinum, carboxyphthalatocyclohexanediamine platinum (II), reference compound]",60 Day Survivors/Total,[1]; 3.13 mg/kg/dose,2/10
same,Body Weight Difference,[1]; 3.13 mg/kg/dose,-2.3 Grams
same,Median % T/C,[1]; 3.13 mg/kg/dose,280%
same,60 Day Survivors/Total,[1]; 6.25 mg/kg/dose,2/10
same,Body Weight Difference,[1]; 6.25 mg/kg/dose,-3.5 Grams
same,Median % T/C,[1]; 6.25 mg/kg/dose,313%
same,60 Day Survivors/Total,[1]; 12.5 mg/kg/dose,0/10
same,Body Weight Difference,[1]; 12.5 mg/kg/dose,-6.0 Grams
same,Median % T/C,[1]; 12.5 mg/kg/dose,Toxic
same,60 Day Survivors/Total,[1]; 25 mg/kg/dose,0/10
same,Median % T/C,[1]; 25 mg/kg/dose,Toxic
same,60 Day Survivors/Total,[1]; 50 mg/kg/dose,0/10
same,Median % T/C,[1]; 50 mg/kg/dose,Toxic
same,60 Day Survivors/Total,[2]; 3.13 mg/kg/dose,6/10
same,Body Weight Difference,[2]; 3.13 mg/kg/dose,-1.2 Grams
same,Median % T/C,[2]; 3.13 mg/kg/dose,645%
same,60 Day Survivors/Total,[2]; 6.25 mg/kg/dose,2/10
same,Body Weight Difference,[2]; 6.25 mg/kg/dose,-2.9 Grams
same,Median % T/C,[2]; 6.25 mg/kg/dose,236%
same,60 Day Survivors/Total,[2]; 12.5 mg/kg/dose,0/10
same,Body Weight Difference,[2]; 12.5 mg/kg/dose,-5.5 Grams
same,Median % T/C,[2]; 12.5 mg/kg/dose,Toxic
same,60 Day Survivors/Total,[2]; 25 mg/kg/dose,0/10
same,Body Weight Difference,[2]; 25 mg/kg/dose,-3.7 Grams
same,Median % T/C,[2]; 25 mg/kg/dose,Toxic
same,60 Day Survivors/Total,[2]; 50 mg/kg/dose,0/10
same,Median % T/C,[2]; 50 mg/kg/dose,Toxic
same,30 Day Survivors/Total,[3]; 3.13 mg/kg/dose,2/6
same,Approx. Log10 Change in Tumor Burden at End of RX,[3]; 3.13 mg/kg/dose,~2.4 log10
same,Median % T/C,[3]; 3.13 mg/kg/dose,139%
same,30 Day Survivors/Total,[3]; 6.25 mg/kg/dose,4/6
same,Approx. Log10 Change in Tumor Burden at End of RX,[3]; 6.25 mg/kg/dose,~-5.9 log10
same,Median % T/C,[3]; 6.25 mg/kg/dose,322%
same,30 Day Survivors/Total,[3]; 12.5 mg/kg/dose,4/6
same,Approx. Log10 Change in Tumor Burden at End of RX,[3]; 12.5 mg/kg/dose,~-5.9 log10
same,Median % T/C,[3]; 12.5 mg/kg/dose,322%
same,30 Day Survivors/Total,[3]; 25 mg/kg/dose,2/6
same,Approx. Log10 Change in Tumor Burden at End of RX,[3]; 25 mg/kg/dose,~-5.9 log10
same,Median % T/C,[3]; 25 mg/kg/dose,304%
same,30 Day Survivors/Total,[3]; 50 mg/kg/dose,1/6
same,Median % T/C,[3]; 50 mg/kg/dose,129%
same,Reduction in tumor burden over the course of therapy,[3]; L1210/Cisplatin,at least -5.9 logs
same,30-day survivors,[3]; tolerated doses,three or more 30-day survivors
"[Cl][Pt]1([Cl])([Cl])([Cl])[NH]C2CCCCC2[NH]1 (stereo not drawn) [trans (d, l), (d,l)-Tetrachloro-trans-1,2-cyclohexanediamine platinum (IV)]",60 Day Survivors/Total,[1]; 1 mg/kg/dose,0/10
same,Body Weight Difference,[1]; 1 mg/kg/dose,-0.8 Grams
same,Median % T/C,[1]; 1 mg/kg/dose,144%
same,60 Day Survivors/Total,[1]; 2 mg/kg/dose,0/10
same,Body Weight Difference,[1]; 2 mg/kg/dose,-1.2 Grams
same,Median % T/C,[1]; 2 mg/kg/dose,180%
same,60 Day Survivors/Total,[1]; 4 mg/kg/dose,0/10
same,Body Weight Difference,[1]; 4 mg/kg/dose,-1.5 Grams
same,Median % T/C,[1]; 4 mg/kg/dose,274%
same,60 Day Survivors/Total,[1]; 8 mg/kg/dose,3/10
same,Body Weight Difference,[1]; 8 mg/kg/dose,-3.2 Grams
same,Median % T/C,[1]; 8 mg/kg/dose,178%
same,60 Day Survivors/Total,[1]; 16 mg/kg/dose,0/10
same,Body Weight Difference,[1]; 16 mg/kg/dose,-5.9 Grams
same,Median % T/C,[1]; 16 mg/kg/dose,89%
same,60 Day Survivors/Total,[2]; 1 mg/kg/dose,0/10
same,Body Weight Difference,[2]; 1 mg/kg/dose,-0.6 Grams
same,Median % T/C,[2]; 1 mg/kg/dose,129%
same,60 Day Survivors/Total,[2]; 2 mg/kg/dose,1/10
same,Body Weight Difference,[2]; 2 mg/kg/dose,-0.8 Grams
same,Median % T/C,[2]; 2 mg/kg/dose,139%
same,60 Day Survivors/Total,[2]; 4 mg/kg/dose,4/10
same,Body Weight Difference,[2]; 4 mg/kg/dose,-1.2 Grams
same,Median % T/C,[2]; 4 mg/kg/dose,451%
same,60 Day Survivors/Total,[2]; 8 mg/kg/dose,0/10
same,Body Weight Difference,[2]; 8 mg/kg/dose,-4.0 Grams
same,Median % T/C,[2]; 8 mg/kg/dose,236%
same,60 Day Survivors/Total,[2]; 16 mg/kg/dose,0/10
same,Body Weight Difference,[2]; 16 mg/kg/dose,-6.3 Grams
same,Median % T/C,[2]; 16 mg/kg/dose,Toxic
same,30 Day Survivors/Total,[3]; 1 mg/kg/dose,0/6
same,Approx. Log10 Change in Tumor Burden at End of RX,[3]; 1 mg/kg/dose,~2.8 log10
same,Median % T/C,[3]; 1 mg/kg/dose,115%
same,30 Day Survivors/Total,[3]; 2 mg/kg/dose,0/6
same,Approx. Log10 Change in Tumor Burden at End of RX,[3]; 2 mg/kg/dose,~2.8 log10
same,Median % T/C,[3]; 2 mg/kg/dose,118%
same,30 Day Survivors/Total,[3]; 4 mg/kg/dose,2/6
same,Approx. Log10 Change in Tumor Burden at End of RX,[3]; 4 mg/kg/dose,~-3.4 log10
same,Median % T/C,[3]; 4 mg/kg/dose,225%
same,30 Day Survivors/Total,[3]; 8 mg/kg/dose,4/6
same,Approx. Log10 Change in Tumor Burden at End of RX,[3]; 8 mg/kg/dose,~-5.9 log10
same,Median % T/C,[3]; 8 mg/kg/dose,322%
same,30 Day Survivors/Total,[3]; 16 mg/kg/dose,1/6
same,Median % T/C,[3]; 16 mg/kg/dose,110%
